The values below come from patent EP1039902B1, “INHIBITORS OF GAP JUNCTION COMMUNICATION” (THE SCRIPPS RESEARCH INSTITUTE, priority 1997, dated 1999).

pKi: −log10 of the molar value. Entries after “also recorded” stand apart in the source; their conditions may differ. Read-outs that look alike come from different tables or passages of the source.

Assay [1] concerns rat glial cell gap junction. In words: Gap junction dye coupling assay (Lucifer yellow dye transfer; microinjection or scrape loading). Type of assay: cell-based. The conditions noted are these: for potency of gap junction inhibition relative to oleamide: comparison in words; for reversibility of gap junction inhibition: removal of media containing the agent, replacement with fresh media. As to the method: (§1) Rat glial cells (Suter et al., 1987) obtained from Dr. Trosko's laboratory were cultured in standard plastic tissue cultureware in Richter's Improved Minimal Essential Medium (Irvine Scientific, Santa Ana, CA), supplemented with 10% fetal calf serum and 50 µg/ml gentamicin sulfate, and incubated in a humidified atmosphere of 95% air/5% CO2 at 37°C. The cells were passaged by trypsinization and used at passages 4-8. BHK (baby hamster kidney) cells that were stably transfected with a β1 connexin cDNA (Kumar et al., 1995) were cultured in DMEM medium supplemented with 5% fetal calf serum and 50 µg/ml gentamicin sulfate, and incubated in a humidified atmosphere of 95% air/5% CO2 at 37° C. In order to induce β1 connexin expression in the BHK cells, 100 µM zinc acetate was added to culture medium for 8-18 hours when the cell culture was about 90% confluent.
(§2) Gap junctional communication in glial cell and BHK/β1 cell cultures was assayed by microinjection of 5% Lucifer yellow CH dye in 0.1 M LiCl solution, and quantitated by determining the number of directly adjacent, neighboring cells that received dye (dye-coupling). Micropipettes were loaded with the dye solution by backfilling. Cells were visualized using a Nikon Diaphot inverted phase contrast/ epifluorescent microscope, and impaled with dye-filled micropipettes using an Eppendorf microinjector (model 5246). Five minutes after dye-injection, the transfer of dye to directly adjacent cells was determined using epifluorescent illumination. For each treatment condition, ten cells were microinjected in each of three dishes, the total number of dye-coupled neighboring cells was calculated and compared to determine the % dye-coupling. For scrape loading measurements, Lucifer yellow CH (0.05% dye in PBS) was loaded intracellularly by cutting or scraping cells in the monolayer with a sharp knife. The dye solution was left in the dish for 90 seconds, then the solution was discarded, and the dish subsequently washed with PBS. The cells were examined for dye transfer with an inverted epifluorescence microscope, and the degree of communication was assessed by determining the extent of Lucifer yellow transfer into contiguous cells.

For assay [2], the target named is T1, fatty acid amide hydrolase (Rattus norvegicus, UniProt P97612).
T1 sequence (P97612 1-579): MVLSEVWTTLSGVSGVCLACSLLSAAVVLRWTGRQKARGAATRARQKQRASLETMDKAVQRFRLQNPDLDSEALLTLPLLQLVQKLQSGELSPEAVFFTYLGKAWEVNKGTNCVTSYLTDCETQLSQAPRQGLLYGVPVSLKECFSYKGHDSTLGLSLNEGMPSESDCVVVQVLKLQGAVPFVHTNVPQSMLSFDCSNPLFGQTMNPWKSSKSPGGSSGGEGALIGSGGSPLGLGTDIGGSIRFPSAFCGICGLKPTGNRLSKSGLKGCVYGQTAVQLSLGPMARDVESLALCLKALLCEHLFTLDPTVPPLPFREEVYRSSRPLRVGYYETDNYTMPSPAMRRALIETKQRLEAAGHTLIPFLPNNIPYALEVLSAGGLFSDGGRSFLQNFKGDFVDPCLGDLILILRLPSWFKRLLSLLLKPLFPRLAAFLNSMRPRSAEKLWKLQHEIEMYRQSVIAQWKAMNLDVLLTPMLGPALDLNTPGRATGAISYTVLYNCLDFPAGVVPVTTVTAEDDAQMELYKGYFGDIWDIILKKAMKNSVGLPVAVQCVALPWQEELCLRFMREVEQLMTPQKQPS
Nature of the assay: Inhibition of fatty acid amide hydrolase. Type of assay: biochemical.

Assay [3] has as its system BHK/β1 cells. In words: Gap junction dye transfer between β1 connexin-transfected BHK cells. Type of assay: cell-based, baby hamster. Here is the method:
as §1, §2

The subject of assay [4] is α1 connexin. Nature of the assay: Immunoblotting of α1 connexin phosphorylation isoforms. Type of assay: cell-based, rat. The conditions noted are these: 50 µM, 4 hours. As to the method: Plasma membrane fractions containing gap junctions were obtained after hypotonic alkali extraction of the glial cells. The extracted protein was dissolved in 2% SDS and the total protein was determined using the Bio-Rad DC Protein Assay kit (Bio-Rad Corp.). 10 µg of protein was electrophoresed by 10% SDS-PAGE, and subsequently blotted electrophoretically on to Immobilon-P membranes (Millipore Corp.). Gap junction protein was detected using anti-α1 connexin polyclonal rabbit antibodies, and the HRP/Chemiluminescence detection kit (Amersham Corp.) following the manufacturer's instructions.
(In general: A western blot detects proteins with antibodies after separation by electrophoresis.)

Assay [5] deals with rat cardiac myocytes. The conditions noted are these: cited from earlier work.
Assay [6] deals with astrocyte. The conditions noted are these: cited from earlier work.
Assay [7] relates to astrocyte calcium waves. The conditions noted are these: mechanical stimulation or local glutamate application; cited from earlier work.
Setting [8] is: result in words, concentration not stated at the place.

In general, pKi refers to the Ki on a negative log10 scale, so that one unit is a factor of ten. A low value points to a high Ki. For the compound `CCCCCCCC/C=C\CCCCCCCC(=O)C(F)(F)F` [CF3], in assay [1], the “potency of gap junction inhibition relative to oleamide” value is listed as “significantly more potent than oleamide” and the “reversibility of gap junction inhibition” value is “reversible effect”. The compound further showed a pKi in assay [2] of 9.00.

With `CCCCCCCC/C=C\CCCCCCCC(=O)O` [Oleic acid, reference compound], the “inhibition of gap junction-mediated dye transfer” value in assay [1] (setting [8]) is “inactive; also recorded: no effect”; in assay [1] (result in words, concentration not stated at the place, listed as oleic acid) it was “no effect”. The “effect on dye transfer” value in assay [3] (50 µM, 4 hours of treatment) is given as “no effect”; in assay [3] (concentration not given) it was “no effect”. The “α1 connexin phosphorylation profile (P2 isoform)” value in assay [4] is given as “No change”. In addition, the gap junction inhibition result is given as “inhibit the gap junction” in assay [5] and “inhibit gap junction communication” in assay [5] (listed as oleic acid).

Regarding `CCCCCCCC/C=C\CCCCCCCC=O` [oleyl aldehyde], in assay [1], the “potency of gap junction inhibition relative to oleamide” value was “nearly equipotent with oleamide” and the “reversibility of gap junction inhibition” value was “reversible effect”. Moreover, the “inhibition of gap junction-mediated dye transfer” value in assay [1] (setting [8]) is listed as “surprisingly effective”. In assay [2], this compound gave a pKi of 6.72.

For the compound `CCCCCCCC/C=C\CCCCCCCC(=O)NCCO` [oleyl ethanolamide], the “inhibition of gap junction-mediated dye transfer” value was “effective inhibitors” in assay [1] (50 µM) and “significant inhibitors” in assay [1] (50 µM, listed as Oleyl ethanolamide). In addition, the “potency of gap junction inhibition relative to oleamide” value in assay [1] is “less potent than oleamide”; in assay [1] (listed as Oleyl ethanolamide) it was “less potent than oleamide at lower doses”. Also, the “gap junction-mediated dye transfer” value in assay [6] is on record as “inhibit gap junction-mediated dye transfer”. Besides, the “propagation of astrocyte calcium waves” value in assay [7] is “block the propagation of astrocyte calcium waves”.

Consider `CCCCCCCC/C=C/CCCCCCCC(N)=O` [trans-9-octadecenamide], for which the “inhibition of gap junction-mediated dye transfer” value in assay [1] (result in words, concentration not given, listed as 18:1^9-trans) is reported as “no observable inhibition”; in assay [1] (setting [8]), “ineffective; also recorded: no effect”. Besides, the “effect on dye transfer” value in assay [3] (50 µM, 4 hours of treatment) is recorded as “no effect”; in assay [3] (concentration not given), “no effect”. The “α1 connexin phosphorylation profile (P2 isoform)” value in assay [4] was “No change”.
